Like-named read-outs stand apart in the source and are kept apart here. Ends that are not written are not given here.
What was measured:
isolated chloroplasts = assay: Oxygen evolution bioassay, phytotoxicity (isolated chloroplasts); assay type: cell-based, Spinach (Spinacia oleracea L. var. Melody); conditions: for inhibition of oxygen evolution: 8 uM
Method: The following procedure for the preparation of chloroplasts to use in an oxygen electrode is similar to that of Gupta et al., "Development and Use of Chlorotetracycline Fluorescence as a Measurement Assay of Chloroplast Envelope-Bound Mg^2+, "Plant Physiol. 89, (1989) 753-761. Spinach (Spinacia oleracea L. var. `Melody`) was grown in 1:1 peat/vermiculite potting mix in a growth chamber with a 10 hour light period. The chamber temperature was maintained at 21° C. (day) and 16° C. (night) during the growth period. All plants were used for chloroplast isolation after 6-8 weeks of growth.
In order to obtain an enriched chloroplast fraction, about 12 g of deribbed spinach leaves were thoroughly washed and surface dried. The leaves were then cut into small pieces, each about 1/2 inch square, and were placed in a small blender jar containing 50 mL of chilled homogenization medium (0.33M sorbitol, 50 mM Hepes-NaOH, pH 6.8, 2mM Na2 EDTA, 1 mM MnCl2, 1 mM MgCl2). The tissue was blended twice for three second intervals on high speed in a blender. The resulting homogenate was filtered through four layers of cheesecloth and two layers of miracloth (Behring Diagnostics, La Jolla, Calif.) into two chilled 30 mL glass centrifuge tubes. The filtered solution was centrifuged for 1.0 minute at 750 g (2,200 RPM) in a JS 13.1 swinging bucket rotor in a Beckman J2-21M centrifuge (Beckman Instruments, Inc., Somerset, N.J.). The supernatant was then decanted and the pellet was gently resuspended by swirling at 0° C. About 15 mL of homogenization medium was added to each tube of chloroplasts before the chloroplasts were layered onto a 40% Percoll gradient (6 mL Percoll, 9 mL homogenization medium, and 0.03 g bovine serum albumin) in a 30 mL glass centrifuge tube. These tubes were centrifuged for 4.0 minutes at 2500 g (4000 RPM) in a JS 13.1 swinging bucket rotor in a Beckman J2-21M centrifuge. The supernatant was removed and the resulting pellet was resuspended in a small amount of homogenization medium (about 500 microliters).
Plastid concentration was generally expressed on a chlorophyll basis. Chlorophyll was determined by the method of Arnon "Copper Enzymes in Isolated Chloroplasts, Polyphenol Oxidase in Beta Vulgaris," Plant Physiol. 24, (1949) 1-15. About 50 microliters of chloroplast stock suspension was added to 10 mL of 80% acetone and this solution was incubated 5.0 minutes in the dark and then centrifuged for 5.0 minutes at 500 g (1630 RPM) in a Beckman GP centrifuge. The absorbance of the acetone-chloroplast solution was monitored at 645 nm, at 663 nm and at 730 nm. The chlorophyll concentration was then calculated as 10× [(absorbance at 645 nm×20.2)+(absorbance at 663 nm×8.02)--background at 730 nm]. This gave the amount of chlorophyll in micrograms for the original 50 microliters of chloroplasts. The concentration of chloroplasts was then adjusted with homogenization medium so that 50 microliters of suspension contained 26 micrograms of chlorophyll. These chloroplasts were only active for 11/2 to 2 hours and were therefore used immediately.
An oxygen electrode (Hansatech Instruments Ltd., Kings Lynn, Norfolk, England) was used to measure oxygen evolution from isolated chloroplasts. For a detailed discussion of the method see, D. Walker, "The Use of the Oxygen Electrode and Fluorescence Probes in Simple Measurements of Photosynthesis," supra. A saturated KCl solution was placed in the electrode well and a one-inch square of rolling paper or lens paper was placed in to the electrode well so that it soaked up KCl and formed an ionic bridge. A one-inch square of teflon membrane was then prepared, being careful not to touch its surface, and was placed over the soaked paper. Using the membrane applicator, an O ring was placed over the head of the electrode, thereby securing paper and membrane across the electrode. The CB-1D control box was turned on and the system was allowed to warm up approximately one hour before calibration. […]

plant protease [1] = conditions: cited from earlier work
[2] = test system: maize BMS suspension cells; assay: Whole cell phytotoxicity screening (oxygen consumption); assay type: cell-based
Method: Oxygen consumed by maize BMS suspension cells were determined as an indication of the relative phytotoxicity of antimicrobial peptides. Black Mexican Sweet (BMS) cell suspension cultures were maintained by transferring 25 mls of cell culture to 25 mls of fresh MSA2D media (4.4 g bottle of Murashige and Skoog basal salt mixture Sigma catalog No. M5524, 100 mg myoinositol, 150 mg L-asparagine, 30 g sucrose, 20 mls of 0.1 mg/ml 2.4-dichlorophenoxy acetic acid stock and 1 ml of vitamin stock consisting of 25 mg/100 ml calcium pantothenate, 50 mg/100 ml pyridoxine, 50 mg/100 ml nicotinic acid, 50 mg/100 ml thiamine, 200 mg/100 ml glycine all added to 1 liter sterile distilled water followed by autoclaving 25 minutes at 121° C.) in a capped sterile 250 ml Erlenmeyer flask 3 days after culture initiation. Four days later 12.5 mls of the cell culture was transferred to 35.5 mls of fresh MSA2D media. Cultures were continuously maintained by alternating 3 and 4 day transfer regimes. The cultures were shaken in low light at 125 RPM at room temperature. For oxygen consumption experiments cells were used one day after transferring to fresh media. Cells were poured into a sterile 50 ml centrifuge tube and allowed to settle by gravity. Spent media was drawn off and 7.8 mls of fresh MSA2D media was added per gram of settled cells. The cell stock solution was placed on a shaker for continued aeration and was used in all assays conducted on that day.
An oxygen electrode (Hansatech Limited, Kings' Lynn, Norfolk, England) was inspected to insure that no corrosion was present. A saturated KCl solution was then placed in the clean electrode well. A 1 inch square of rolling paper or lens paper was cut and placed over the well so that the edges of the paper soaked up KCl and formed an ionic bridge. A 1 inch square of teflon membrane was cut, being careful not to touch the surface, and placed over the soaked rolling paper. A membrane applicator was used to press an O-ring over the head of the electrode thereby securing paper and membrane across the electrode. The CB-1D control box (Hansatech Limited) was turned on and allowed to warm up approximately one hour before calibration. The CB-1D control box was set at 1X output. A chart recorder was set at 0.05 V input with a chart speed of 3 cm/min. A circulating water bath set at 20° C. was hooked up to the electrode chamber. The entire system was calibrated using air-saturated water obtained by vigorously shaking a wash bottle of distilled water. Using the gain switch, the output was set so that the pen on the chart recorder was at the maximum chart height (900=top). The oxygen concentration of air-saturated water was assumed to be 276 nmole/mL at 20° C. All air was removed from the water in the cuvette by adding 2-3 mg of sodium dithionite. The pen on the chart recorder responded by moving to the bottom of the graph. If the slope of the line was unstable, the membrane and rolling paper were removed and the set-up steps were repeated.
For a 1 mL assay, 888 uL water and 62.5 uL BMS stock cell suspension were added to the oxygen electrode cuvette. The final concentration of cells used in the assay was approximately 8 mg/mL. The rate of oxygen consumed by the cells was monitored on the chart recorder for 3 minutes. Fifty microliters of peptide was then added to the cuvette using a Hamilton syringe. (Peptide stocks were adjusted to deliver the desired concentration in a 50 uL volume). Oxygen consumption was monitored for 5 minutes after peptide addition. The time period for the complete test was 8 minutes.
The rate of suppression of oxygen consumption after the addition of a peptide was determined by comparing the slope of the line before the addition of the peptide to the slope of the line at a set time point after addition of the peptide. The rate of oxygen consumption after addition of the peptide was divided by the initial control rate of oxygen consumption and then multiplied by 100. […]

[3] = test system: extracellular plant proteases; assay: in vitro; conditions: pH 7.4
Text: In an attempt to determine the sensitivity of peptides to extracellular plant proteases, and to determine the site or sites of processing by these proteases, a system was designed to obtain extracellular fluid from leaves of maize, tobacco, or potato and to use these to test the stability of various peptides.
Extracellular fluid (ECF) was obtained by cutting interveinal pieces from tobacco leaf after they were rinsed in deionized water. The segments were submerged in water in a vacuum desicator and vacuum was applied for 5 to 10 min. The vacuum was released slowly, the leaves were blotted dry and 4 to 5 pieces were rolled and placed in a 50 mL disposable syringe barrel cut down so as to be able to fit in a swinging bucket centrigue rotor. The syringe barrel was placed in a 50 mL screw cap conical centrifuge tube and centrifuged in a swinging bucket rotor at 600×g for 30 min. The liquid was recovered and centrifuged in a microfuge for 10 min. The supernatant was stored at -80° C. and used in subsequent experiments.
To test the stability of a peptide to extracellular plant proteases, 10 ug of the peptide (1 mg/mL) was incubated with 10% extracellular fluid in 50 mM Tris HCL buffer, pH 7.4. The peptides tested were prepared or obtained as described in Examples 6, 13, and 14. After incubation at 37° C. for 0, 15, 30, 45 and 60 min the proteases were inactivated by the addition of trifluoroacetic acid (TFA) to 1% final concentration (v/v).
Peptides were analyzed by reverse phase chromatography on a 2.1×30 mm POROS R/H column (PerSpective Biosystems, Cambridge, Mass.) using a 5 to 35% acetonitrile gradient in 0.1% TFA on a Hewlett-Packard HP1090 high pressure liquid chromatograph (Hewlett Packard, Avondale, Pa.) at 3.5 mL/min.

plant protease [4] = test system: plant protease
[5] = Phytotoxicity (method not given)
[6] = 10% extracellular fluid from tobacco leaf

CGIGKFLREAGKFGKAFVGEIMKP [Peptide No. 13, Cys [Arg 7, Glu 8, Pro 23] Mag 1]
inhibition of oxygen evolution (isolated chloroplasts): 100%

GIGKFLHEAKKFGKAFVGEIMNS [Peptide No. 10, [Glu 8] Mag 2]
decrease in the susceptibility to proteolytic degradation (plant protease [1]): ≥ 50%

GIGKFLHSAGKFGKAFVGEIMKS [Peptide No. 2, Magainin 1]
Percent Inhibition of Oxygen Consumption Caused by Addition of 4 μM Peptide [2]: 52 +/- 6%
phytotoxic effect on whole cells, oxygen consumption (in words) [2]: greater overall phytotoxic effect on whole cells

GIGKFLHSAKKFGKAFVGEIMNS [Peptide No. 1, Magainin 2]
phytotoxic effect on whole cells, oxygen consumption (in words) ([2]; Table V): much higher level of inhibition of oxygen consumption
remaining at 0.25 h [3, 6]: 23%
remaining at 0.5 h [3, 6]: 18%
remaining at 0.75 h [3, 6]: 5.3%
remaining at 1 h [3, 6]: 0.5%
Percentage of Area Under the Parent Peak ([3]; Time 0 min, 10% extracellular fluid, 37° C.): 100 Percentage

GIGKFLHSAKKFGKAFVGEIMNSGGGGGGIGKFLHSAKKFGKAFVGEIMNS [Peptide No. 6, Mag 2 dimer (bridged)]
inhibition of oxygen evolution (isolated chloroplasts): 100%

GIGKFLHSAKKFGKAFVGEIMNSGIGKFLHSAKKFGKAFVGEIMNS [Peptide No. 5, (Mag 2)-(Mag 2)]
Percent Inhibition of Oxygen Consumption Caused by Addition of 4 μM Peptide [2]: 72 +/- 13%
phytotoxic effect on whole cells, oxygen consumption (in words) [2]: no significantly different effect on phytotoxicity
inhibition of oxygen evolution (isolated chloroplasts): 100%

KWKLFKKIEKVGQNIRDGIIKAGPAVAVVGQATQIAK-NH2 [Peptide No. 3, Cecropin A-NH2, reference compound]
inhibition of oxygen evolution (isolated chloroplasts): 100%

MGIGKFLREAGKFGKAFVGEIMKGIGKFLREAGKFGKAFVGEIMKP [Peptide No. 15, Head-to-tail peptide Nos. 11 and 12***]
inhibition of oxygen evolution (isolated chloroplasts): 100%

SNMIEGVFAKGFKKASHLFKGIG [Peptide No. 8, Reverse Magainin 2]
Percent Inhibition of Oxygen Consumption Caused by Addition of 4 μM Peptide [2]: 16 +/- 12%
phytotoxicity effect compared to native Magainin 2 (in words) (isolated chloroplasts): extremely low Phytotoxicity effect

SWLSKTAKKLENSAKKRISEGIAIAIQGGPR [Peptide No. 4, P1]
phytotoxic effect on whole cells, oxygen consumption (in words) ([2]; Table V): greater overall phytotoxic effect on whole cells
susceptibility to proteolysis (in words) (plant protease [4]): very low
phytotoxicity (in words) [5]: very low

From US5519115A, “Reverse antimicrobial peptides” (priority 1993, dated 1996)
